The subject of this experiment is 6-OHDA mouse model of Parkinson's disease. As to the kind of experiment: Studies C and D: amphetamine-induced ipsilateral rotations in the 6-OHDA mouse model. The experiment is classed as in vivo, C57BL6 mice. To be noted: Study D, 3 mg/kg oral daily, day 21 after 6-OHDA (12 μg). Here is the method: To determine the oral efficacy of the compound of formula (I) in the 6-OHDA mouse model of Parkinson's disease.
8-week-old C57BL6 male mice (obtained from ARC, Perth, Australia) were housed under a 12-h light cycle in a SPF climate-controlled facility with food and water provided ad libitum for two weeks prior to study initiation. For treatment with the compound of formula (I), mice were dosed via oral gavage. Ten (10) mice in each group were dosed at 3 or 1 mg/kg, starting the day before (24 hr prior) stereotaxic surgery, and then QD until sacrifice.
6-OHDA (Sigma) was prepared immediately prior to surgeries. A sterile saline (0.9%) solution containing ascorbic acid (0.2%) was used as the vehicle to dissolve 6-OHDA. […] In order to inject a final concentration of 12 μg into the right striatum, a working stock of 6 mg/ml was made injecting a final volume of 2 μl.
Mice were anaesthetized using ketamine (100 mg/kg, i.p.) and xylazine (10 mg/kg i.p.)
anesthesia and were placed into a stereotactic frame with nose and ear bars specially adapted for mice. The lesion was performed using a 5 μl Hamilton syringe to deliver either vehicle or 6-OHDA (12 μg) at the following coordinates relative to bregma: AP: −1.2 mm; ML: −1.7 mm; DV: 3.5 mm into the right dorsal striatum according to the stereotaxic atlas (“The mouse brain in stereotaxic coordinates” by Paxinos and Franklin, 1997). After drilling a 1 mm burr-hole in the skull, a 2 μl volume of solution was infused at the target site at the rate of 0.5 μl per minute. The needle was held in place for at least 5 minutes after injection to minimize retrograde flow along the needle tract. Mice were administered a subcutaneous injection of sterile Ringer's solution to is facilitate recovery and were placed on a heat-pad until complete recovery from anesthesia.
Amphetamine-induced ipsilateral rotations were performed at day 21 post-surgery. Mice were injected with 2 mg/kg of D-amphetamine and placed in circular glass bowls.
After an acclimatization period of five minutes, the net ipsilateral rotations over ten minutes were recorded and counted. Quantitation was performed from recorded videos by an investigator blinded to the treatment groups.
The aim of study D was to compare the neuroprotective efficacy of the compound of formula (I) with MCC95o in the mouse unilateral 6-OHDA model at 3 mg/kg. The amphetamine-induced ipsilateral rotations and striatal dopamine (DA) levels were assessed, using a protocol identical to that used for study C, with ten (10) mice in each group being dosed at 3 mg/kg for each drug, starting the day before (24 hr prior) stereotaxic surgery, and then daily throughout until sacrifice.

The text below walks through data of US20220401414A1, “TREATMENT AND PREVENTION OF A NEURODEGENERATIVE DISORDER” (Inflazome Limited, priority 2019, published 2022).

With `CC(C)(O)c1coc(S(=O)(=O)NC(=O)Nc2c3c(cc4c2CCC4)CCC3)c1` [MCC950, reference compound], the “reduction in amphetamine-induced rotations relative to the 6-OHDA untreated group” value is 55%.
